Source: patent US12287344B2, “Fret-based method to measure seeding activity of misfolded protein species in biological samples” (MAX-DELBRÜCK-CENTRUM FÜR MOLEKULARE MEDIZIN IN DER …, priority 2018, dated 2025)

Tests used:
Ex1Q48-CyPet/-YPet = test: FRASE assay: effect of added preformed fibrils/seeds on Ex1Q48-CyPet/-YPet polymerization; type: biochemical, human; settings: non-polyQ fibrillar aggregates produced in vitro; sensor 1:1 mixture, total conc. 1.2 μM
Protocol: (B) Effects of small, preformed Ex1Q48 seeds (1250 kDa) on Ex1Q48-CyPet and -YPet (1:1 mixture, total conc. 1.2 μM) co-aggregation. Data are mean±SEM (n=5).
(D) Effects of non-polyQ fibrils on Ex1Q48-CyPet and -YPet (1:1 mixture, total conc. 1.2 μM) co-aggregation. Data are mean±SD of triplicates.
Spontaneous Ex1Q48 aggregation was initiated by addition of 14 U PreScission protease (GE Healthcare) per nmol purified GST-Ex1Q48 fusion protein (2 μM). The aggregation reaction was performed in 50 mM Tris-HCl pH 7.4, 150 mM NaCl, 1 mM EDTA and 1 mM DTT at 25° C. and constant agitation (450 rpm) for 24 h. […] K2Q48P6 protein for seeding experiments was prepared from GST-K2Q48P6 fusion protein using the same protocol. ΔN17Q48+6PRD protein for seeding experiments was prepared from GST-ΔN17Q48+6PRD fusion protein using the same protocol. ΔN17Q40+6PRD protein for seeding experiments was prepared from GST-ΔN17Q40+6PRD fusion protein using the same protocol. Synthetic human IAPP was aggregated as described previously (Gao et al., 2015). Lyophilized α-Syn was dissolved in PBS at 500 μM and centrifuged (4° C., 265.000×g) after a 5 min sonication step to remove aggregated material. The supernatant was incubated for 7 d at 37° C. under constant shaking in the presence of a single glass bead. Tau40 was aggregated for 6 d at 37° C. under constant shaking in 100 mM sodium acetate, pH 7.4, and 1 mM DTT in the presence of heparin. Synthetic human Δβ1-42 was dissolved in 100 mM NaOH and diluted to 200 μM in low salt buffer (10 mM K3PO4, pH 7.4, 10 mM NaCl). Aggregation was performed for 6 h at 37° C. under constant agitation.
(§1) Purified GST-Ex1Q48-CyPet and GST-Ex1Q48-YPet were diluted in aggregation buffer at an equimolar ratio to a final concentration of 1.2 μM (0.6 μM each) with 14 U PSP per nmol sensor proteins if not stated otherwise. […] For quantification of seeding-competent HTT species in tissue samples, the sensor-protein mixture was supplemented with up to 10% (v/v) tissue homogenate. Fluorescence signals were measured every 20 min following a 5 s pulse of vertical shaking with a Tecan M200 fluorescence plate reader at 25° C. for up to 48 h. CyPet donor fluorescence was measured at excitation (Ex): 435 nm/emission (Em): 475 nm; YPet acceptor fluorescence at Ex: 500 nm/Em: 530 nm; the FRET channel (DA) was recorded at Ex: 435 nm/Em: 530 nm. Raw signals were processed by subtracting the background fluorescence of unlabeled Ex1Q48 in all channels. […] In brief, the FRET efficiency E (in %) was calculated as follows: E=(DA-cDxDD-cAxAA)/AA with DD=donor channel signal and AA=acceptor channel signal.
Seeding effects (Δt50 [h]) were quantified by subtracting the t50 values (time at half-maximal FRET efficiency) of the respective sample from the negative control. […]

HTTex1Q48 seeds = target: T1, HTTex1Q48 seeds (Homo sapiens, UniProt P42858, INS38QQQQQQQQQQQQQQQQQQQQQQQQQQQ/P65L/V80A); test: FRASE assay of HTTex1Q48 seeds pre-incubated with compound; type: biochemical; settings: preformed, sonicated HTTex1Q48 aggregates incubated with compound in 200-fold molar excess at 25° C. for 20 hours; compared to seeds incubated with DMSO
T1 construct: GST (N, cleaved yes); made in house; host or cells: E. coli BL21-CodonPlus-RP
Protocol: Httex1Q48 seeds were pre-incubated with 04 in 200-fold molar excess at 25° C. for 20 h and subsequently analyzed for their seeding activity using FRASE assays. (A) Aggregation profiles of sensor proteins in the presence or absence of O4 treated seeds and respective controls. Data are mean±SD of technical triplicates.
as §1, with “signal. […]” for “signal.”

sensor proteins = test: Sensor protein aggregation in the presence of compound but in the absence of HTTex1Q48 seeds; type: biochemical, human; settings: compound present, no HTTex1Q48 seeds; residual concentration
Protocol: Purified GST-Ex1Q48-CyPet and GST-Ex1Q48-YPet were diluted in aggregation buffer at an equimolar ratio to a final concentration of 1.2 μM (0.6 μM each) with 14 U PSP per nmol sensor proteins if not stated otherwise. The solution was then mixed with preformed aggregates of Ex1Q48 (seeds) at varying concentrations with or without prior sonication and transferred to a black 384-well plate (with a final reaction volume of 30 μl per well and a sensor protein concentration of 1.2 μM). For quantification of seeding-competent HTT species in tissue samples, the sensor-protein mixture was supplemented with up to 10% (v/v) tissue homogenate. Fluorescence signals were measured every 20 min following a 5 s pulse of vertical shaking with a Tecan M200 fluorescence plate reader at 25° C. for up to 48 h. CyPet donor fluorescence was measured at excitation (Ex): 435 nm/emission (Em): 475 nm; YPet acceptor fluorescence at Ex: 500 nm/Em: 530 nm; the FRET channel (DA) was recorded at Ex: 435 nm/Em: 530 nm. Raw signals were processed by subtracting the background fluorescence of unlabeled Ex1Q48 in all channels. […] In brief, the FRET efficiency E (in %) was calculated as follows: E=(DA-cDxDD-cAxAA)/AA with DD=donor channel signal and AA=acceptor channel signal. […]

HTTex1Q48 = HTTex1Q48 (Homo sapiens, UniProt P42858, INS38QQQQQQQQQQQQQQQQQQQQQQQQQQQ/P65L/V80A); settings: previously shown (Wagner et al., 2018); cited from earlier work
Chain of HTTex1Q48 (P42858 with tags, fused parts or gaps with the stated changes): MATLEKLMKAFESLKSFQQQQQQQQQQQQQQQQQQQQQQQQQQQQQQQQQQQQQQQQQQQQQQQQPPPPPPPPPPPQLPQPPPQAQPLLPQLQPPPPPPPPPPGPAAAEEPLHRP

T1 sequence (P42858 with tags, fused parts or gaps with the stated changes): as above

Compound | influence on Ex1Q48-CyPet/-YPet polymerization (Ex1Q48-CyPet/-YPet) | HTTex1Q48 seeding activity (HSA, Δt50) after pre-incubation of seeds (HTTex1Q48 seeds) | effect on sensor protein aggregation (sensor proteins) | interference with the aggregation of HTTex1Q48 (HTTex1Q48)
amyloid-β: synthetic human Aβ1-42 aggregated in vitro | did not significantly influence | – | – | –
tau: recombinant Tau40 protein aggregated in the presence of heparin | did not significantly influence | – | – | –
α-synuclein | did not significantly influence | – | – | –
IAPP: synthetic human islet amyloid polypeptide aggregated in vitro (KCNTATCATQRLANFLVHSSNNFGAILSSTNVGSNTY) | did not significantly influence | – | – | –
O=c1cc2oc3cc(O)c(-c4ccc(O)cc4O)cc3nc-2cc1-c1ccc(O)cc1O [O4] | – | strongly reduces | no significant effect | interfere with the aggregation
